{"source": "patent US20130217681A1", "about": "“METHOD AND COMPOSITION FOR WEIGHT-GAIN MANAGEMENT” (TECHNION RESEARCH AND DEVELOPMENT FOUNDATION LTD., priority 2010, published 2013)", "key": {"[1]": {"conditions": "olanzapine-treated first episode schizophrenia patients, cited from earlier work"}, "animal models of obesity": {"tested_on": "animal models of obesity", "conditions": "cited from earlier work"}, "[2]": {"assay": "betahistine in a small group (n=7) of olanzapine-treated first-episode schizophrenia patients", "assay_type": "in vivo, Human", "text": "Similarly, betahistine was associated with a modest attenuation of weight gain in a small group (n=7) of olanzapine-treated first-episode schizophrenia patients: the betahistine group 3.86 kg versus the placebo group 5.03 kg.\nSimilarly, betahistine was associated with a modest attenuation of weight gain in a small group (n=7) of olanzapine-treated first-episode schizophrenia patients: the betahistine group gained 3.86 kg versus the placebo group 5.03 kg."}, "[3]": {"conditions": "cited from earlier work; for weight gain, mean (SD): olanzapine-treated patients, reboxetine 4 mg/day, 31 patients reboxetine, 29 placebo"}, "[4]": {"conditions": "in 10 weeks; cited from earlier work"}, "[5]": {"conditions": "baseline to endpoint, 6 weeks", "excerpt": "Human patients (male and female, age 18-45) hospitalized at Tirat Carmel Mental Health Center (Tirat Carmel, Israel) were screened. Eligible patients were interviewed using the Structured Clinical Interview for DSM-IV-TR Axis I Disorders, Patient Edition, and those who meet DSM-IV-TR criteria for schizophrenic or schizophreniform disorder were enrolled.\nA double-blind, placebo-controlled, randomized design was used in the study."}}, "note": "Where “and” joins values, the source holds several entries; their conditions need not be identical. Equal values may be shown once. Read-outs that look alike come from different tables or passages of the source."}
{"smiles": "CNCCc1ccccn1", "note": "[betahistine]", "values": [{"measurement": "tolerability", "setting": "[1]", "value": "safe, well tolerated"}, {"measurement": "effect on weight gain", "setting": "[1]; small sample, open design", "value": "prevents weight gain"}, {"measurement": "food intake", "setting": "animal models of obesity", "value": "inhibit food intake"}, {"measurement": "weight gain, mean (SD)", "setting": "[2]", "value": 3.86, "unit": "kg"}, {"measurement": "weight gain, mean (SD)", "setting": "[2]; listed as Olanzapine+betahistine", "value": "3.86 (0.9) kg"}]}
{"smiles": "Cc1cc2c(s1)Nc1ccccc1N=C2N1CCN(C)CC1", "note": "[olanzapine + placebo, olanzapine]", "values": [{"measurement": "weight gain, mean (SD)", "setting": "[3]", "value": "4.91 (2.45) kg"}, {"measurement": "weight gain induced in treated patients", "setting": "[4]", "value": 3.5, "unit": "kg"}, {"measurement": "patients who gained at least 7% of their initial weight (clinically significant weight gain)", "setting": "6 week trial, 30 vs 13 patients", "value": 46.1, "unit": "%"}, {"measurement": "weight gain during the trial, average (SD)", "setting": "6 week trial, olanzapine 10 mg, betahistine 48 mg/day, reboxetine 4 mg, Example 1", "value": "5.5 (2.7) kg"}, {"measurement": "body weight", "setting": "Week 1", "value": 70.4, "unit": "kg"}, {"measurement": "increase in body weight, Δ from baseline", "setting": "Week 1", "value": 1.2, "unit": "kg^"}, {"measurement": "body weight", "setting": "Week 2", "value": 71.3, "unit": "kg"}, {"measurement": "increase in body weight, Δ from baseline", "setting": "Week 2", "value": 2.3, "unit": "kg"}, {"measurement": "body weight", "setting": "Week 3", "value": 72, "unit": "kg"}, {"measurement": "increase in body weight, Δ from baseline", "setting": "Week 3", "value": 3.8, "unit": "kg"}, {"measurement": "body weight", "setting": "Week 4", "value": 73.4, "unit": "kg"}, {"measurement": "increase in body weight, Δ from baseline", "setting": "Week 4", "value": 4.3, "unit": "kg"}, {"measurement": "body weight", "setting": "Week 5", "value": 74.2, "unit": "kg"}, {"measurement": "increase in body weight, Δ from baseline", "setting": "Week 5", "value": 5.4, "unit": "kg"}, {"measurement": "body weight", "setting": "Week 6", "value": 75.4, "unit": "kg"}, {"measurement": "increase in body weight, Δ from baseline", "setting": "Week 6", "value": 5.5, "unit": "kg"}, {"measurement": "change in triglyceride level", "setting": "[5]", "value": "almost two-fold increase"}]}
{"smiles": "CCOc1ccccc1OC(c1ccccc1)C1CNCCO1", "note": "(centres unmarked) [reboxetine]", "values": [{"measurement": "weight-attenuating effect", "setting": "[3]; low-dose 4 mg/day, schizophrenic patients treated with olanzapine", "value": "significant weight-attenuating effect"}, {"measurement": "weight gain, mean (SD)", "setting": "[3]", "value": "3.31 (2.73) kg and 3.31 kg"}, {"measurement": "weight gain, mean (SD)", "setting": "[3]; listed as Olanzapine+reboxetine", "value": "3.31 (2.73) kg"}, {"measurement": "tolerability", "setting": "[3]; reboxetine-olanzapine treated patients", "value": "safe and well tolerated and no clinically significant side effects were found"}]}
